Data reported in ChEMBL document CHEMBL3217423, “Binding of 9-O-(-amino) alkyl ether analogues of the plant alkaloid berberine to poly(A): insights into self-structure induction” (Medchemcomm, 2011).
Activity calls are given as the source filed them. The rule behind the calls is not given here.

How the values were obtained:
[1] = Binding affinity to poly(A) tail mRNA (unknown origin) assessed as melting temperature of poly(A) self-structure by UV absorption/CD melting analysis
[2] = Binding affinity to poly(A) tail mRNA (unknown origin) assessed as induction of self-structure formation by circular dichroism analysis
[3] = Binding affinity to poly(A) tail mRNA (unknown origin) assessed as induction of self-structure formation by circular dichroic spectroscopy
[4] = Binding affinity to poly(A) tail mRNA (unknown origin) assessed as association constant by isothermal titration calorimetry relative to berberine
[5] = Binding affinity to poly(A) tail mRNA (unknown origin) assessed as apparent binding constant by absorption spectroscopy relative to berberine

Tm [1]	Activity [2]	Activity [3]	Ratio [4]	Ratio [5]	Structure (SMILES)
58 °C	Active	Active	–	–	COc1ccc2cc3[n+](cc2c1OC)CCc1cc2c(cc1-3)OCO2 [BERBERINE]
58 °C	Active	Active	–	–	COc1ccc2cc3[n+](cc2c1OCCCCN)CCc1cc2c(cc1-3)OCO2
59.5 °C	Active	Active	10	20	COc1ccc2cc3[n+](cc2c1OCCCCCCN)CCc1cc2c(cc1-3)OCO2
59 °C	–	–	3	–	COc1ccc2cc3[n+](cc2c1OCCN)CCc1cc2c(cc1-3)OCO2
